This passage reports IC50 results from patent US20130072519A1, “2-PHENYL BENZOYLAMIDES” (priority 2010, published 2013).

By IC50 is commonly meant the point on the concentration scale where inhibition reaches its midpoint. A high value points to a need for much substance.

The test system of the assay is Apolipoprotein B Secretion from HepG2 Cells. Kind of assay: Inhibition of Apolipoprotein B secretion from HepG2 cells (ELISA). The assay is classed as cell-based, human. To be noted: 22-24 hours incubation, ApoB ELISA, Low/High IC50 columns give the 95% confidence interval. On the procedure:
Inhibition of Apolipoprotein B Secretion from HepG2 Cells
To assess the inhibitory effect of the compounds of the invention on ApoB production, an endogenously ApoB producing cell line, HEPG2, was implemented in an in vitro ELISA assay. HEPG2 cells are plated at 25,000 per well (96-well plates) in media consisting of DMEM Low Glucose, 1% NEAA (non-essential amino acids), 10% FBS (heat inactivated), 1% L-Glutamine, and 1% Antimycotic-Antibiotic and incubated for 16-18 hours at 37° C. and 5% CO2. After the 16-18 hour incubation, a 12 point half-log serial of the inhibitor (1000 nM-0.003 nM) is prepared, and 1.5 ul of the serial dilution is added to HEPG2 cells, which have had their media decanted and replaced with 148 ul of fresh media, and the cells are incubated for 22-24 hours at 37° C. and 5% CO2. Two and a half hours before the 22-24 hour incubation period is completed, Nunc Maxisorp plates are coated with 100 ul of primary (coating) antibody (goat anti-apoB), diluting to a ratio of 1:1000 in 1% Carbonate-Bicarbonate Coating Buffer and incubated for at least 2 hours at room temperature before the primary antibody is decanted and the wells of the microplate are washed with 200 ul of washing buffer (1% PBS, 0.05% Tween20). Next, 200 ul of blocking buffer (1% PBS, 1:500 Western Block, 5 mg/ml BSA) is added to the wells of the microplate, and incubated for at least 30 mins. Following the 22-24 hours incubation period, cell plates are removed from the incubator, 20 ul of supernatant from each well is aspirated, added to a corresponding well in 96 well plate containing 140 ul of diluent (1:2-Blocking Buffer: Washing Buffer), and mixed. Then, 120 ul is aspirated from the dilutent-supernatant plate, added to the blocked Nunc Maxisorp 96 well plate, and placed at room temperature on a shaker to mix for at least 2 hours. The secondary (capture) antibody (mouse anti-human apoB) is prepared at a ratio of 1:4000, and the detection antibody (goat anti-mouse HRP conjugated antibody) at a ratio of 1:10,000. For each antibody, 100 ul is added to each well of the microplate and the microplate is incubated at room temperature for 2 hours, washing the microplates between each antibody addition. Colorimetric development is achieved by adding 50 ul of TMB reagent to each well, incubating for 5 mins at room temperature, then adding 50 ul of 2M Sulfuric Acid to each well. Absorbance at 450 nm is monitored in an Envision plate reader to measure the amount of ApoB formed.
Results reported as average IC50, low and high IC50 range (95% confidence interval).
In general terms: In an ELISA, binding on a coated surface is turned into a signal by an enzyme label.

[1] abbreviates: Homo sapiens, HepG2, HepG2 cells.

`CCOC(=O)C1(COC(=O)Cc2ccc(NC(=O)c3ccccc3-c3ccc(C(F)(F)F)cc3)c(C(=O)N(C)C)c2)NC(=O)c2ccccc21` (stereo not shown) [Example 24] displayed an IC50 (HepG2 cells) of 28 nM.
Still for that read-out and setting: in the case of `CCOC(=O)C1(COC(=O)Cc2ccc(NC(=O)c3ccccc3-c3ccc(C(F)(F)F)cc3)c(C(=O)N(C)C)c2)NC(=O)c2ccccc21` (stereo not shown) [Example 25] it was 297 nM; in that of `CCOC(=O)C1(COC(=O)Cc2ccc(NC(=O)c3ccccc3-c3ccc(C(F)(F)F)cc3)c(C(=O)N(C)C)c2)OC(=O)c2ccccc21` (stereo not shown) [Example 31], 10.1 nM.
The compound `CCOC(=O)C1(COC(=O)Cc2ccc(NC(=O)c3ccccc3-c3ccc(C(F)(F)F)cc3)c(C(=O)N(C)C)c2)OC(=O)c2ccccc21` (stereo not shown) [Example 32] yielded a concentration for half-maximal inhibition (IC50) (HepG2 cells) of 45.5 nM.
In turn, `COC(=O)C1(COC(=O)Cc2ccc(NC(=O)c3ccccc3-c3ccc(C(F)(F)F)cc3)c(C(=O)N(C)C)c2)CCc2ccccc21` (stereo not shown) [Example 33] yielded an IC50 under setting [1] of 6.5 nM.
For `COC(=O)C1(COC(=O)Cc2ccc(NC(=O)c3ccccc3-c3ccc(C(F)(F)F)cc3)c(C(=O)N(C)C)c2)CCc2ccccc21` (stereo not shown) [Example 34], half-maximal inhibition (HepG2 cells) (IC50) required 5.54 nM.
The same measure, in the same setting: in the case of `CCOC(=O)C1(COC(=O)Cc2ccc(NC(=O)c3ccccc3-c3ccc(C(F)(F)F)cc3)c(C(=O)N(C)C)c2)CCc2ccccc21` (stereo not shown) [Example 35] it was 0.46 nM.
As to `CCOC(=O)C1(COC(=O)Cc2ccc(NC(=O)c3ccccc3-c3ccc(C(F)(F)F)cc3)c(C(=O)N(C)C)c2)CCc2ccccc21` (stereo not shown) [Example 36], the half-inhibitory concentration (IC50) (HepG2 cells) is 4.6 nM.
Same read-out and setting: in the case of `CCOC(=O)C1(COC(=O)Cc2ccc(NC(=O)c3ccccc3-c3ccc(C(F)(F)F)cc3)c(C(=O)N(C)C)c2)CCc2cccnc21` (stereo not shown) [Example 38] it was 19.9 nM; in that of `CCOC(=O)C1(COC(=O)Cc2ccc(NC(=O)c3ccccc3-c3ccc(C(F)(F)F)cc3)c(C(=O)N(C)C)c2)CCc2cccnc21` (stereo not shown) [Example 39], 2.34 nM.
Consider `CCOC(=O)C1(COC(=O)Cc2ccc(NC(=O)c3ccccc3-c3ccc(C(F)(F)F)cc3)c(C)c2)OC(=O)c2ccccc21` (stereo not shown) [Example 40], for which the IC50 under setting [1] is 159 nM.
As to `CCOC(=O)C1(COC(=O)Cc2ccc(NC(=O)c3cccc(C)c3-c3ccc(C(F)(F)F)cc3)c(C(=O)N(C)C)c2)c2ncccc2C(=O)N1CC` (stereo not shown) [Example 47, Ethyl 7-({2-[3-(Dimethylcarbamoyl)-4-({[6-methyl-4′-(trifluoromethyl)biphenyl-2-yl]carbonyl}amino)phenyl]acetoxy}methyl)-6-ethyl-5-oxo-6,7-dihydro-5H-pyrrolo[3,4-b]pyridine-7-carboxylate], inhibition (HepG2 cells) was half-maximal at 7.56 nM (IC50).
As for `CCOC(=O)C1(COC(=O)Cc2ccc(NC(=O)c3cccc(C)c3-c3ccc(C(F)(F)F)cc3)c(C(=O)N(C)C)c2)c2ncccc2C(=O)N1CC` (stereo not shown) [Example 48, Ethyl 7-({2-[3-(Dimethylcarbamoyl)-4-({[6-methyl-4′-(trifluoromethyl)biphenyl-2-yl]carbonyl}amino)phenyl]acetoxy}methyl)-6-ethyl-5-oxo-6,7-dihydro-5H-pyrrolo[3,4-b]pyridine-7-carboxylate], the IC50 (HepG2 cells) was 0.203 nM.
On to `CCOC(=O)C1(COC(=O)Cc2ccc(NC(=O)c3cccc(C)c3-c3ccc(OC(C)C)cc3)c(C(=O)N(C)C)c2)c2ccccc2C(=O)N1C` (stereo not shown) [Example 51, ethyl 1-({2-[3-(dimethylcarbamoyl)-4-{[(4′-isopropoxy-6-methylbiphenyl-2-yl)carbonyl]amino}phenyl]acetoxy}methyl)-2-methyl-3-oxoisoindoline-1-carboxylate], for which, under setting [1], the IC50 worked out at 0.159 nM.
As to `CCOC(=O)C1(COC(=O)Cc2ccc(NC(=O)c3cccc(C)c3-c3ccc(C(C)C)cc3)c(C(=O)N(C)C)c2)c2ccccc2C(=O)N1C` (stereo not shown) [Example 53], under setting [1], the concentration for half-maximal inhibition (IC50) was found to be 0.242 nM.
Still for that read-out and setting: in the case of `CCOC(=O)C1(COC(=O)Cc2ccc(NC(=O)c3ccccc3-c3ccc(OC(C)C)cc3)c(C(=O)N(C)C)c2)c2ccccc2C(=O)N1C` (stereo not shown) [Example 54, ethyl 1-({2-[3-(dimethylcarbamoyl)-4-{[(4′-isopropoxybiphenyl-2-yl)carbonyl]amino}phenyl]acetoxy}methyl)-2-methyl-3-oxoisoindoline-1-carboxylate] it was 0.124 nM; in that of `CCOC(=O)C1(COC(=O)Cc2ccc(NC(=O)c3ccc(C(F)(F)F)cc3-c3ccc(C(F)(F)F)cc3)c(C(=O)N(C)C)c2)c2ccccc2C(=O)N1C` (stereo not shown) [Example 55, ethyll-({2-[4-({[4′,5-bis(trifluoromethyl)biphenyl-2-yl]carbonyl}amino)-3-(dimethylcarbamoyl)phenyl]acetoxy}methyl)-2-methyl-3-oxoisoindoline-1-carboxylate], 0.154 nM; in that of `CCOC(=O)C1(COC(=O)Cc2ccc(NC(=O)c3cccc(C)c3-c3ccc(OC(C)C)cc3)c(C(=O)N(C)C)c2)CCc2cccnc21` (stereo not shown) [Example 57, ethyl 7-({2-[3-(dimethylcarbamoyl)-4-{[(4′-isopropoxy-6-methylbiphenyl-2-yl)carbonyl]amino}phenyl]acetoxy}methyl)-6,7-dihydro-5H-cyclopenta[b]pyridine-7-carboxylate], 1.37 nM.
Same read-out and setting: in the case of `CCOC(=O)C1(COC(=O)Cc2ccc(NC(=O)c3ccc(C(F)(F)F)cc3-c3ccc(C(F)(F)F)cc3)c(C(=O)N(C)C)c2)CCc2cccnc21` (stereo not shown) [Example 58, ethyl 7-({2-[4-({[4′,5-bis(trifluoromethyl)biphenyl-2-yl]carbonyl}amino)-3-(dimethylcarbamoyl)phenyl]acetoxy}methyl)-6,7-dihydro-5H-cyclopenta[b]pyridine-7-carboxylate] it was 7.18 nM.
Same read-out and setting: in the case of `CCOC(=O)[C@]1(COC(=O)Cc2ccc(NC(=O)c3cccc(C)c3-c3ccc(C(F)(F)F)cc3)c(C(=O)N3CCCCC3)c2)c2ccccc2C(=O)N1C` [Example 62, ethyl (1R)-2-methyl-1-({2-[4-({[6-methyl-4′-(trifluoromethyl)biphenyl-2-yl]carbonyl}amino)-3-(piperidin-1-ylcarbonyl)phenyl]acetoxy}methyl)-3-oxoisoindoline-1-carboxylate] it was 1.17 nM.
Under setting [1], `CCOC(=O)[C@]1(COC(=O)Cc2ccc(NC(=O)c3cccc(OC)c3-c3ccc(OC(C)C)cc3)c(C(=O)N(C)C)c2)c2ccccc2C(=O)N1C` [Example 63, ethyl (1R)-1-({2-[3-(dimethylcarbamoyl)-4-{[(4′-isopropoxy-6-methoxybiphenyl-2-yl)carbonyl]amino}phenyl]acetoxy}methyl)-2-methyl-3-oxoisoindoline-1-carboxylate] returned a half-inhibitory concentration (IC50) of 0.119 nM.
The same measure, in the same setting: in the case of `CCOC(=O)[C@]1(COC(=O)Cc2ccc(NC(=O)c3cccc(OC)c3-c3ccccc3)c(C(=O)N(C)C)c2)c2ccccc2C(=O)N1C` [Example 64, ethyl (1R)-1-({2-[3-(dimethylcarbamoyl)-4-{[(6-methoxybiphenyl-2-yl)carbonyl]amino}phenyl]acetoxy}methyl)-2-methyl-3-oxoisoindoline-1-carboxylate] it was 0.536 nM; in that of `CCOC(=O)[C@]1(COC(=O)Cc2ccc(NC(=O)c3ccccc3-c3ccc(C(C)(C)C)cc3)c(C(=O)N(C)C)c2)c2ccccc2C(=O)N1C` [Example 66, ethyl (1R)-1-({2-[4-{[(4′-tert-butylbiphenyl-2-yl)carbonyl]amino}-3-(dimethylcarbamoyl)phenyl]acetoxy}methyl)-2-methyl-3-oxoisoindoline-1-carboxylate], 0.206 nM; in that of `CCOC(=O)[C@]1(COC(=O)Cc2ccc(NC(=O)c3cccc(C)c3-c3ccc(C(C)(C)C)cc3)c(C(=O)N(C)C)c2)c2ccccc2C(=O)N1C` [Example 67, ethyl (1R)-1-({2-[4-{[(4′-tert-butyl-6-methylbiphenyl-2-yl)carbonyl]amino}-3-(dimethylcarbamoyl)phenyl]acetoxy}methyl)-2-methyl-3-oxoisoindoline-1-carboxylate], 0.244 nM.
In the case of `CCOC(=O)[C@]1(COC(=O)Cc2ccc(NC(=O)c3ccc(C)cc3-c3ccc(C(C)(C)C)cc3)c(C(=O)N(C)C)c2)c2ccccc2C(=O)N1C` [Example 68, ethyl (1R)-1-({2-[4-{[(4′-tert-butyl-5-methylbiphenyl-2-yl)carbonyl]amino}-3-(dimethylcarbamoyl)phenyl]acetoxy}methyl)-2-methyl-3-oxoisoindoline-1-carboxylate], half-maximal inhibition under setting [1] (IC50) required 0.178 nM.
